Assay results reported in patent US20210283099A1, “CDC7 KINASE INHIBITORS AND USES THEREOF” (SLOAN-KETTERING INSTITUTE FOR CANCER RESEARCH, priority 2010, published 2021).
In brackets after ≈: the same amount, converted by molar mass.

What was measured:
[1] = system: HeLa cells; assay: Caspase-3 activity in HeLa cells; type: cell-based, human; conditions: rescued by Bcl-XL overexpression and 10 micromolar Ac-DEVD-CHO
Description: FIGS. 12-14. Inhibition of Granaticin A Induced Caspase-3 Activity in HeLa cells. Growth curves in the presence of the indicated micromolar concentrations of granaticin A were performed and caspase-3 activity was measured following addition of a substrate that when cleaved by caspase-3 results in light emission which is quantitated by a fluorimeter (y-axis) as a function of time (x-axis).

[2] = system: PhALL3.1; assay: SCID-Beige mouse intraperitoneal tumor model of PhALL3.1; type: in vivo
Description: FIGS. 19A-19B. Granaticin A Inhibits growth of PhALL3. 1 in vivo: Using a SCID-Beige mouse intraperitoneal tumor model of PhALL3.1, mice were intraperitoneally treated with vehicle control (DMSO) or the indicated doses of granaticin A on days 3, 6, 9, and 12. Day 16 in vivo bioluminescence imaging (FIG. 19A) and quantitation of tumor volume are shown (FIG. 19B) and indicate 90% reduction in tumor volume by Day 16 in mice treated at the highest dose (3.0 mg/kg).

[3] = Liver microsome stability test; type: in vitro ADME
Description: The stability of granaticin A was determined in mouse and human liver microsomes.

[4] = system: HeLa cells; assay: S phase checkpoint western blot analysis; type: cell-based, human
Description: FIG. 15. […] HeLa cells were incubated in the presence of granaticin A or carrier control (DMSO) for the indicated times and whole cell extracts were subjected to SDS-PAGE and western blot analysis. Asyn=asynchronously growing HeLa cells. HU=HeLa cells exposed to hydroxyurea for the indicated time. HU was used as a control for DNA damaging agent that is known to […] the DNA damage checkpoint response. Again, we observed that Mcm2 mobility is shifted in the cells treated with granaticin A. MCM2 mobility is not affected by HU. Activation of the DNA damage/replication checkpoint correlates with ATM/ATR dependent phosphorylation of Chk1 at Ser345.

[5] = biological target: human recombinant Cdc7 (Homo sapiens, UniProt O00311); assay: In vitro kinase reaction, Mcm2 phosphorylation by Cdc7; type: biochemical; conditions: radioactive ATP, SDS-PAGE, autoradiography
Description: FIG. 8. Mcm2 phosphorylation by Cdc7: Phosphorylated forms of Mcm2 migrate […] in SDS-PAGE gels. Using highly purified human recombinant Cdc7 and Mcm2, standard in vitro kinase reactions were performed in the presence of radioactive ATP and products were separated on SDS-PAGE gels, stained with silver, and autoradiography was performed to detect phosphorylated forms of Mcm2.

[6] = system: PhALL3.1 cells; assay: Caspase 3 fluorometric activity assay in G1 synchronized cells; type: cell-based, human; conditions: 10 hours following release of G1 synchronized cells
[7] = system: primary patient leukemia samples; assay: Inhibition of cellular proliferation, all primary patient leukemia samples; type: cell-based, human
Description: FIGS. 16A-16B. Granaticin A and Granaticin B inhibit multiple tumor types: The indicated cell lines and primary patient samples were tested against the compounds listed in standard cytotoxicity assays (12 point dose response using Alamar blue reduction as an indicator of cell viability). Assays were done in triplicate and IC50 determinations were run in 12-point serial dilutions from […] to 5 nM. […] These include ras and EGFR gatekeeper mutation containing cell lines in addition to p53 mutant cell lines and other known chemotherapy resistant cell lines. Specifically, this included multi-drug resistance phenotype (MDR-overexpressing) cell lines from multiple hematologic and solid tumor cell lines. Table 1 highlights a series of primary patient leukemia samples-both acute and chronic and treatment naïve and refractory tested against granaticins A and B and Derivatives 1 and 2 (see Examples).
Table 1 highlights a series of primary patient leukemia samples-both acute and chronic and treatment naïve and refractory and the effect of granaticin A, granaticin B, derivative 1, and derivative 2 to inhibit cellular proliferation. […]

[8] = Standard solubility studies; type: physicochemical
Description: Standard solubility studies were conducted with granaticin B. In aqueous solution, 4.0 mg/ml of granaticin B is soluble. In alcohol, >188 mg/ml of granaticin B is soluble. In methanol, >252 mg/ml of granaticin B is soluble.

[9] = system: SKMEL-28; assay: Nude mouse xenograft, melanoma; type: in vivo; conditions: 2.5 mg/kg/day continuous, osmotic diffusion pumps; sections at day 28
Description: (§1) FIG. 22A-22C. Granaticin B is Effective Against Multiple Solid Tumors: granaticin B is efficacious against mouse models of melanoma (FIG. 22A), non-small cell lung cancer (FIG. 22B), and ovarian cancer (FIG. 22C). For the ovarian cancer experiments, SCID-Beige mice were injected with 5 million OVCAR3 cells that had been transduced with a GFP-firefly luciferase expressing plasmid (Frattini, M. G. and Brentjens, R. J., unpublished data). These cells were then injected intraperitoneally into 4 cohorts of mice on Day 1. From days 7-14 the mice were injected daily with the indicated concentrations of granaticin B in the intraperitoneal space. […] Nude mice were treated with 2.5 mg/kg/day granaticin B in a continuous fashion using osmotic diffusion pumps. Sections of the treated xenografts are shown after euthanasia at day 28 and H&E staining.

[10] = system: JOKE-2 cells; assay: Trypan blue viability and caspase-3 assay; type: cell-based, human; conditions: 1 microM
Description: FIGS. 24A-24B. […] The JOKE-2 cell line was derived from a patient with Philadelphia chromosome positive Acute Lymphoblastic Leukemia (Ph-ALL). […] FIG. 24A: Joke-2 cells were grown in the presence of DMSO control or granaticin B (1 microM) for the indicated times and viability was measured after staining a cell sample in trypan blue (Sigma-Aldrich).

[11] = system: OVCAR3 cells; assay: OVCAR3 intraperitoneal ovarian cancer model in SCID-Beige mice; type: in vivo, mouse; conditions: 3 mg/kg intraperitoneally daily days 7-14; imaging on day 42
Description: as §1

human recombinant Cdc7, sequence (O00311 whole entry): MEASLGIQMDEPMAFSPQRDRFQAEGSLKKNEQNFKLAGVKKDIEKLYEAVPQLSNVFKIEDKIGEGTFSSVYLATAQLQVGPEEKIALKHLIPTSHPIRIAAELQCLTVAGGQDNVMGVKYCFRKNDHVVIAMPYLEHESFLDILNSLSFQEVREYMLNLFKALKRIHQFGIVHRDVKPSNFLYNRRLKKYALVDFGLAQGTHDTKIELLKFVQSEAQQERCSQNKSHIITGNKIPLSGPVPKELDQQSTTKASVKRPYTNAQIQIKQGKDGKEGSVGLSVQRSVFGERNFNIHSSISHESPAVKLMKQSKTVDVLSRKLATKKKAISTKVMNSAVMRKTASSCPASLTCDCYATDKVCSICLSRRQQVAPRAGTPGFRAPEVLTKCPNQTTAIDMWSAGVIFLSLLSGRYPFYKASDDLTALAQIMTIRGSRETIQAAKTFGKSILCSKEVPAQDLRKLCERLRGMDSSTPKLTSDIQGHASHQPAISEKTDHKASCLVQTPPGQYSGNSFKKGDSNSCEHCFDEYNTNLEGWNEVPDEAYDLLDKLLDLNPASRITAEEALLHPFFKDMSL
human recombinant Cdc7, sequence (Q9UBU7 whole entry partner): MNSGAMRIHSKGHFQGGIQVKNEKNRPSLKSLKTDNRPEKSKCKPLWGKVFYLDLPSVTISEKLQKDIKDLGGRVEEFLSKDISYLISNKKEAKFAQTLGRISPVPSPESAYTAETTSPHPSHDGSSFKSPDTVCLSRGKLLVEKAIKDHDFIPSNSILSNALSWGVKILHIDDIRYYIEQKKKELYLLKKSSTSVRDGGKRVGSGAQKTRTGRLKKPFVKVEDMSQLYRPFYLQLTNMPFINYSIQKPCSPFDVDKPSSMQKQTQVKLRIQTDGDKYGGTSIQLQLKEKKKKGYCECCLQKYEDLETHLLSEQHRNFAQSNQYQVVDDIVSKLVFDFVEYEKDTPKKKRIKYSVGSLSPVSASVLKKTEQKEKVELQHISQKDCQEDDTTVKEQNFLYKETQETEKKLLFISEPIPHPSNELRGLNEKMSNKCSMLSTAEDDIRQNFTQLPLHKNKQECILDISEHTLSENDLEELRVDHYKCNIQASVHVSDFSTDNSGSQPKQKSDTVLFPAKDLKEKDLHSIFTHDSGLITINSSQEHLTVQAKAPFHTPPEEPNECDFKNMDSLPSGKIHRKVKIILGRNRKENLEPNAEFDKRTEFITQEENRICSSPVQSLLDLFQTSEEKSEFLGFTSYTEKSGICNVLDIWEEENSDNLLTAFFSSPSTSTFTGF

## CC1OC2CC(O)C1(O)c1c(O)c3c(c(O)c12)C(=O)C1=C(C3=O)[C@H](C)O[C@H]2CC(=O)O[C@@H]12 (stereo partly drawn) [Granaticin A, granaticin A]
[1]
  caspase-3 activity: activation of caspase-3 and apoptosis
[2]; all mice examined at each dose level
  organ toxicity at necropsy: no significant (grade 2 or higher) organ toxicity
[2]; highest dose 3.0 mg/kg intraperitoneally on days 3, 6, 9, 12, Day 16 bioluminescence imaging
  reduction in tumor volume: 90%
[3]; human liver microsomes
  recovery at 30 min: 23.9%
  recovery at 60 min: 12%
[3]; mouse liver microsomes
  recovery at 30 min: 3.68%
  recovery at 60 min: 3.84%
[4]; HeLa cells
  double strand DNA breaks: increased double strand DNA breaks
[4]; SDS-PAGE and western blot
  Mcm2 mobility: shifted
[4]; western blot, Chk1 Ser345
  S phase checkpoint activation: does not activate the S phase checkpoint
[5]
  Cdc7 kinase activity on Mcm2: small molecule inhibitor of Cdc7 kinase activity
[6]
  caspase 3 activity / apoptosis: induces Caspase 3-mediated apoptosis

## CC1OC2CC(O[C@H]3CC[C@H](O)[C@H](C)O3)C1(O)c1c(O)c3c(c(O)c12)C(=O)C1=C(C3=O)[C@H](C)O[C@H]2CC(=O)O[C@@H]12 (stereo partly drawn) [Granaticin B, granaticin B]
[7]; against all the samples tested
  activity relative to granaticin A: approximately one log
[7]; all the samples tested
  range of inhibition of cellular proliferation: low nanomolar range
[8]; organic solvent or mixture, in alcohol
  solubility: > 188 mg/mL
[8]; organic solvent or mixture, in methanol
  solubility: > 252 mg/mL
[8]; water, in aqueous solution
  solubility: 4 mg/mL (≈ 7.16 mM)
[9]
  efficacy in mouse model of melanoma: efficacious
[10]
  caspase-3 activation: only activated in cells exposed to granaticin B
  effect on viability (trypan blue): very effective
[11]
  disease by luciferase imaging: essentially no disease
